Source: PMC3667675 (ChemMedChem, 2011)
Square brackets hold non-standard residues; d marks the D form. Peptide text beside a SMILES is read from it.

Legend:
KOR [1] = assay: Radioligand binding assay, cloned KOR in CHO cell membranes, [3H]diprenorphine; conditions: read-out: Ki (nM ± SEM) KOR, mean ± SEM
MOR [2] = format: binding; conditions: read-out: Ki (nM ± SEM) MOR; CHO membranes, [3H]DAMGO, mean ± SEM
opioid receptors = format: in vivo, C57Bl/6J mice
KOR [3] = target: KOR (Mus musculus, UniProt P33534); format: in vivo, C57Bl/6J mice; conditions: U50,488 10 mg/kg i.p.; 3 h pretreatment
Sequence of KOR (Mus musculus, UniProt P33534) (P33534 whole entry): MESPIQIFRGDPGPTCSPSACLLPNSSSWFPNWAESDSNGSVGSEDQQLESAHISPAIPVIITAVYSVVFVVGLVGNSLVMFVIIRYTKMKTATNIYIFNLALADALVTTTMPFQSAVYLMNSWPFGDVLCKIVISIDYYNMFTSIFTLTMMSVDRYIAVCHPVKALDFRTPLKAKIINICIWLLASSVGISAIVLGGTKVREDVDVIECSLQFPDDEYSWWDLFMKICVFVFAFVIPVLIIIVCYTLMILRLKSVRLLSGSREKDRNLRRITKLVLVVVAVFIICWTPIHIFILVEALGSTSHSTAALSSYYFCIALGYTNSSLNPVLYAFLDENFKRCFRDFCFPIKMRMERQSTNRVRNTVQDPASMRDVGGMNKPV

C57Bl/6J mice = format: in vivo
KOR [4] = assay: Ligand-stimulated [35S]GTPγS binding assay, KOR expressing CHO cell membranes; format: biochemical; conditions: ratio of KB values
DOR = assay: Radioligand binding assay, cloned DOR in CHO cell membranes, [3H]DPDPE; conditions: read-out: Ki (nM ± SEM) DOR, mean ± SEM
MOR [5] = target: MOR (Rattus norvegicus, UniProt P33535); assay: biochemical
Sequence of MOR (Rattus norvegicus, UniProt P33535) (P33535 whole entry): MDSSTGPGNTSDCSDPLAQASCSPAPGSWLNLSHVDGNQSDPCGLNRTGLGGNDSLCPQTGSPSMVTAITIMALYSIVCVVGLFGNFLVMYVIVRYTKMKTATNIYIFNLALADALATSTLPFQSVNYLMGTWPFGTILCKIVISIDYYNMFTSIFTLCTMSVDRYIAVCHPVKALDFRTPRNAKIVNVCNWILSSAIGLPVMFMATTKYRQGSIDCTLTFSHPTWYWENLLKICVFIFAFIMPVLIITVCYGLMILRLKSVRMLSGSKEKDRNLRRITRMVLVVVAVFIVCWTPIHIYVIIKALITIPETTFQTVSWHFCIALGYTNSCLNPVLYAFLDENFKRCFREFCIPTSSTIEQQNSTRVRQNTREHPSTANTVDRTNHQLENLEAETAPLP

C[C@@H]1NC(=O)[C@H](Cc2c[nH]c3ccccc23)NC(=O)[C@H](Cc2ccccc2)NC(=O)[C@H]2CCCN2C1=O [Peptide 2, cyclo[Ala-DPro-Phe-Trp]] (cyclo(A[dP]FW))
Ki (KOR [1]): 8.03 ± 1.67 nM
Ki (MOR [2]): 32.1 ± 3.9 nM
Effect of naloxone pretreatment on peptide antinociception (opioid receptors; naloxone 15 nmol i.c.v., 25 min prior, peptides 2 (3 nmol), 3 (10 nmol), 4 (0.3 nmol), 5 (30 nmol) i.c.v.): significantly antagonized
Reduction of antinociceptive activity by nor-BNI pretreatment (opioid receptors; nor-BNI 10 mg/kg i.p., did not reach statistical significance): > 30%
KOR antagonist potency in vivo compared with parent peptide 1 (KOR [3]): somewhat more potent
Time of peak antinociceptive response (C57Bl/6J mice; after i.c.v. administration): 30 min
ED50 (and 95% confidence interval), antinociception (C57Bl/6J mice; i.c.v., at peak response, C57Bl/6J mice): 1.49 (0.39-7.41) nmol
KOR antagonist potency relative to parent peptide 1 (more potent) (KOR [4]): 25 fold
Ki (DOR): 8680 ± 1270 nM
Kb (MOR [5]): 0.0073 ± 0.0016 µM
